Here are results for seven molecules from patent publication US9359298B2, “Cajanine structure analogous compound, preparation method and use” (INSTITUTE OF MEDICINAL BIOTECHNOLOGY, CHINESE ACADEMY OF …, priority 2011, dated 2016).

Converted amounts (≈) assume the structure as drawn.

Common to all, as to type: cell-based
The subject of assay [1] is Influenza A virus (hanfang359/95). The assay can be described thus: Determination of anti-influenza virus activity (CPE in MDCK cells). To be noted: for IC50: Influenza A virus, MDCK, 36 h.
Another assay deals with Coxsackie virus B6. Description: Coxsackie virus activity assay (CPE in Vero cells). The note with it: Vero, read-out: COX-B6 IC50, Vero cells, about 100TCID50, CPE, Reed-Muench.
The next assay deals with HCV. Description: Anti-hepatitis C virus (HCV) activity assay (HCV RNA in Huh7.5 cells). The note with it: for EC50: Hepatitis C virus, Huh7.5, 72 h, Huh7.5 cells, 72 h, HCV RNA by RT-PCR, Reed-Muench, read-out: HCV EC50; for anti-HCV viral activity: statement in words. How it is done: Inoculate Huh7.5 cells into 96-well plates to a density of 3×10^4 cells/cm^2, culture for 24h, infect the cells with 45 IU/cell HCV supernatant, meanwhile, add drug solutions or solvent control for treatment.

The next assay has as its system HIV-1 III B virus. The assay can be described thus: Anti-HIV activity assay (P24 antigen in MT-4 cells). To be noted: for IC50: Human immunodeficiency virus 1, MT4, 96 h, MT-4 cells, HIV-1 III B 100TCID50, 96 h, P24 antigen, read-out: HIV IC50; for anti-HIV viral activity: statement in words.
Assay [2] concerns PC12 cells. Description: Neuroprotective activity assay, serum-deprived injury to PC12 cells (MTT). To be noted: Rattus norvegicus, PC-12, 48 h, 10 μM test compound, 48 h; Control 100.0 ± 9.2, Model 69.3 ± 4.1; read-out: serum-deprived (surviving PC12 cells, MTT 570 nm). As to the method: (§1) Discard the original culture media from confluent monolayers of PC12 cells (simulated neuronal cells), add DMEM complete medium with 5% FBS, 5% horse serum gently beat upon the cells with a pipette to completely disperse them, inoculate 100 μl cell suspension at a density of […] per well to 96 hole plates treated with poly-lysine (0.1 mg/ml) in advance, culture for 24h. Divide the experimenting cells into control group, model group and dosing groups. Add complete medium to the control group. Model groups includes rotenone group and serum-deprived group, add rotenone to the corresponding modules with a final concentration of 4 μM rotenone to take effect on the cells for 48 h, add serum-deprived groups with serum-free DMEM medium to take effect on the cells for 48 h. Dosing groups also includes two groups, one using rotenone module as model, another using serum-deprived module as model, and both add in 10 μM test compounds during modeling. 48h later, add 10 μl 5 mg/ml MTT, subsequently discard the supernatant 4h later and add in 150 μl DMSO, measure 570 nm absorbance to represent the numbers of surviving cells.

The test system of assay [3] is PC12 cells. The assay can be described thus: Neuroprotective activity assay, rotenone injury to PC12 cells (MTT). The note with it: Rattus norvegicus, PC-12, 48 h, 10 μM test compound, 4 μM rotenone, 48 h; Control 100.0 ± 8.9, Model 73.2 ± 7.8; read-out: rotenone (surviving PC12 cells, MTT 570 nm). How it is done:
as §1

Take `COc1cc(/C=C/c2ccccc2Cl)c(C(=O)O)c(O)c1CC=C(C)C` [Compound 1b, 2-hydroxy-3-isopentenyl-4-methoxy-6-[(E)-2-chlorostyryl]benzoic acid]: the IC50 is greater than 18.5 µg/mL in assay [1], greater than 1.03 µg/mL with Coxsackie virus B6 and 1.22 µg/mL (≈ 3.27 µM) with HIV-1 III B virus. Also, in the assay on HCV, the EC50 amounted to 0.67 µg/mL (≈ 1.8 µM). The “anti-HCV viral activity” value with HCV is on record as “stronger anti-HIV, HCV viral activities”. Moreover, in the assay on HIV-1 III B virus, the “anti-HIV viral activity” value is recorded as “stronger anti-HIV, HCV viral activities”. For the same molecule, the viability at 10 µM in the assay with PC12 cells [2] stood at 15.7 ± 0.3%; in the assay with PC12 cells [3], 68.2 ± 8%.

As for `COc1ccc(/C=C/c2cc(OC)c(CC=C(C)C)c(O)c2C(=O)O)cc1` [Compound 1c], the values for the IC50 (in assay [1]; with Coxsackie virus B6; with HIV-1 III B virus) were greater than 2.06 µg/mL, 1.6 µg/mL (≈ 4.34 µM) and 1.64 µg/mL (≈ 4.45 µM), respectively. The EC50 in the assay on HCV amounted to 2.69 µg/mL (≈ 7.3 µM). In the assay with HCV, the “anti-HCV viral activity” value was “stronger anti-HIV, HCV viral activities”. Moreover, the “anti-HIV viral activity” value in the assay with HIV-1 III B virus is listed as “stronger anti-HIV, HCV viral activities”. Besides, the viability at 10 µM was determined as 16.1 ± 0.7% in the assay with PC12 cells [2] and 77.2 ± 0.6% in the assay on PC12 cells [3].

`COc1cc(/C=C/c2ccccc2C)c(C(=O)O)c(O)c1CC=C(C)C` [Compound 1e, 2-hydroxy-3-isopentenyl-4-methoxy-6-[(E)-2-methylstyryl]benzoic acid]: the IC50 was greater than 2.47 µg/mL in assay [1], 3.26 µg/mL (≈ 9.25 µM) in the assay with Coxsackie virus B6 and 2.7 µg/mL (≈ 7.66 µM) in the assay on HIV-1 III B virus. In the assay with HCV, the concentration for a half-maximal effect (EC50) was found to be 0.47 µg/mL (≈ 1.33 µM). Also, the “anti-HCV viral activity” value with HCV was “stronger anti-HIV, HCV viral activities”. Also, in the assay with HIV-1 III B virus, the “anti-HIV viral activity” value is “stronger anti-HIV, HCV viral activities”. Moreover, the viability at 10 µM in the assay with PC12 cells [2] turned out to be 30.6 ± 12%; in the assay with PC12 cells [3], 55.6 ± 9.9%.

For the molecule `COc1cc(/C=C/c2cccc(C)c2)c(C(=O)O)c(O)c1CC=C(C)C` [Compound 1f, 2-hydroxy-3-isopentenyl-4-methoxy-6-[(E)-3-methylstyryl]benzoic acid], the values for the IC50 (in assay [1]; in the assay with Coxsackie virus B6; with HIV-1 III B virus) were 0.48 µg/mL (≈ 1.36 µM), 4.65 µg/mL (≈ 13.2 µM) and 1.45 µg/mL (≈ 4.11 µM), respectively. The “anti-influenza virus activities compared with the lead compound cajanine” value in assay [1] (statement in words) is “significantly stronger than the lead compound cajanine”. Besides, in the assay with HCV, the EC50 was 0.53 µg/mL (≈ 1.5 µM). Besides, the “anti-HCV viral activity” value in the assay with HCV was “stronger anti-HIV, HCV viral activities”. The “anti-HIV viral activity” value in the assay on HIV-1 III B virus is on record as “stronger anti-HIV, HCV viral activities”. In addition, the viability at 10 µM in the assay on PC12 cells [2] turned out to be 31.7 ± 10.3%; in the assay with PC12 cells [3], 58 ± 4.5%.

With `COc1cc(/C=C/c2ccc(C)cc2)c(C(=O)O)c(O)c1CC=C(C)C` [Compound 1g, 2-hydroxy-3-isopentenyl-4-methoxy-6-[(E)-4-methylstyryl]benzoic acid], the IC50 was greater than 0.82 µg/mL in assay [1], 4.25 µg/mL (≈ 12.1 µM) with Coxsackie virus B6 and 0.68 µg/mL (≈ 1.93 µM) in the assay on HIV-1 III B virus. Further, the EC50 in the assay on HCV turned out to be 1.43 µg/mL (≈ 4.06 µM). Also, the viability at 10 µM is 59.8 ± 11.4% in the assay on PC12 cells [2] and 77.7 ± 12.9% with PC12 cells [3].

For `CC/C=C/c1cc(OC)c(CC=C(C)C)c(O)c1C(=O)O` [Compound 1h, 2-hydroxy-3-isopentenyl-4-methoxy-6-[(E)-buten-1-yl]benzoic acid], the results for the IC50 (in assay [1]; in the assay on Coxsackie virus B6; in the assay on HIV-1 III B virus) were 1.92 µg/mL (≈ 6.61 µM), 15.3 µg/mL (≈ 52.7 µM) and 2.39 µg/mL (≈ 8.23 µM), respectively. The EC50 in the assay on HCV amounted to 2.6 µg/mL (≈ 8.95 µM). For the same molecule, the viability at 10 µM was 43.8 ± 8.8% in the assay on PC12 cells [2] and 70 ± 7.1% with PC12 cells [3].

`COc1cc(/C=C(\C)c2ccccc2)c(C(=O)O)c(O)c1CC=C(C)C` [Compound 1i, 2-hydroxy-3-isopentenyl-4-methoxy-6-[(E)-2-phenylpropen-1-yl]benzoic acid]: the values for the IC50 (in assay [1]; in the assay on Coxsackie virus B6; in the assay on HIV-1 III B virus) were greater than 0.82 µg/mL, 6.25 µg/mL (≈ 17.7 µM) and 1.31 µg/mL (≈ 3.72 µM), respectively. The EC50 in the assay on HCV came out at 0.59 µg/mL (≈ 1.67 µM). The “anti-HCV viral activity” value with HCV is “stronger anti-HIV, HCV viral activities”. In addition, the “anti-HIV viral activity” value with HIV-1 III B virus is on record as “stronger anti-HIV, HCV viral activities”. Moreover, the viability at 10 µM amounted to 28.3 ± 7.6% with PC12 cells [2] and 55.1 ± 4.8% in the assay with PC12 cells [3].

The IC50 is the concentration that inhibits the measured activity by half. By EC50 is commonly meant the concentration that produces a half-maximal response.
